Values after ≈ are worked out from the molar mass of the structure shown. Values joined by “and” are separate entries in the source; they are usually repeats but may differ in a detail not shown here. Identical values can stand only once. “Also recorded” adds a separate entry of the source.
What was measured:
HeLa S3 cell = experiment: Action on cultivated HeLa S3 cell (growth inhibition); format: cell-based; details: for ID50: percentage growth inhibition in 72 hours of culture
lung of mice = experiment: Toxicity to the lung of mice (pulmonary fibrosis); format: in vivo, ICR strain mice; details: for Grade: Relative value / Incidence: Relative value: Bleomycin complex = 1.0, 5 mg/kg i.p. x 10 days
Procedure: ICR strain mice (male, 15 weeks old), 12 in number per group, were used. […]. The dose was administered by intraperitoneal injection, once a day, for 10 consecutive days. After administration, the mice were bred for 5 weeks. After observation, the mice were slaughtered and autopsied to determine the extent of pulmonary fibrosis. […].

[1] = system: mouse Ehrlich cancer (solid tumor); experiment: Carcinostatic activity to mouse Ehrlich cancer (solid tumor); format: in vivo, ICR strain mice; details: for Percentage inhibition: tumor weight on 15th day vs control; for ID50: Ehrlich solid tumor, 10 doses
Procedure: Each 2×10^6 cells were transplanted subcutaneously into the inguinal region of ICR strain mice (male, 6 weeks old). After 24 hours, each mouse was administered with test preparations in the same manner as described in 1-2 above. On the 15th day after the subcutaneous transplantation, tumors were removed from each mouse and compared the weight with that of tumors developed in the control group, which had received no treatment, to determine the percentage inhibition.

AH66 ascites hepatoma = experiment: Carcinostatic activity against ascites hepatoma (ascites type) in rats; format: in vivo, Donryu strain rats; details: control = 100
Procedure: Each 1×10^6 AH66 cells were transplanted intraperitoneally into Donryu strain rats. After 24 hours, the test preparation was intraperitoneally administered once a day for 10 consecutive days. During a period of 30 days after the transplantation, the weight of each rat and the number of dead and survival were observed.

[2] = system: mouse squamous cell carcinoma induced by 20-methylcholanthrene; experiment: Inhibitory activity against mouse squamous cell carcinoma induced by 20-methylcholanthrene; format: in vivo, ddy strain mice; details: for Mortality: 62.5 mcg/mouse i.p. twice a week for 15 weeks; for Percentage inhibition: inhibition of carcinogenesis vs control, 62.5 mcg/mouse i.p.
Text: An acetone solution of 20-MC was topically applied to the sheared back of ddy strain mice (male, 10 weeks old), twice a week, for 18 weeks. After 5 weeks from the beginning of the 20-MC treatment, 62.5 mcg/mouse of the test preparation was intraperitoneally applied, twice a week, during a period of 15 weeks. Within the first week after completion of the administration of test preparation, the region where 20-MC had been applied was pathologically examined for the incidence of carcinogenesis.

[3] = system: Mycobacterium smegmatis ATCC 607 (Mycobacterium 607); experiment: Antimicrobial potency by the cup method, bleomycin A2 as standard; format: cell-based; details: for Antimicrobial potency M. 607: bleomycin A2 standard = 1,000 U/mg; for Antimicrobial potency: product batches of the Examples, bleomycin A2 (copper-free form) = 1,000 u/mg
Procedure: (§1) The antimicrobial potency was assayed by the cup method against Mycobacterium 607 and Bacillus subtilis PCI by using bleomycin A2 as standard (1,000 U/mg).
[Note: The antimicrobial potency was assayed using Mycobacterium smegmatis ATCC 607 as assay organism and assuming the potency of bleomycin A2 (copper-free form) as 1,000 u/mg. The same applies hereinafter.]

Bacillus subtilis PCI = experiment: as above; format: cell-based; details: bleomycin A2 standard = 1,000 U/mg
Procedure: as §1

rats [4] = experiment: Acute toxicity in intraperitoneal route (LD50) in rats; details: rat
[5] = Solubility (physicochemical properties); details: solvents as named in the value
rats [6] = system: rats
[7] = 3.12 mg/kg x 10 i.p., 30 days observation

SMILES | ID50 (HeLa S3 cell) [µg/mL] | Grade: Relative value (lung of mice) | Incidence: Relative value (lung of mice) | Percentage inhibition ([1]; 0.03 mg/kg x 10) | Percentage inhibition ([1]; 0.1 mg/kg x 10) | Percentage inhibition ([1]; 0.3 mg/kg x 10) | Percentage inhibition ([1]; 0.9 mg/kg x 10) | Percentage inhibition ([1]; 2.7 mg/kg x 10) | ID50 [1] [mg/kg/day] | Relative value of average survival days (AH66 ascites hepatoma; 0.19 mg/kg x 10 i.p.) | Relative value of average survival days (AH66 ascites hepatoma; 0.39 mg/kg x 10 i.p.) | Relative value of average survival days (AH66 ascites hepatoma; 0.78 mg/kg x 10 i.p.) | Relative value of average survival days (AH66 ascites hepatoma; 1.56 mg/kg x 10 i.p.) | Relative value of average survival days (AH66 ascites hepatoma; [7]) | Mortality [2] | Percentage inhibition [2] | Antimicrobial potency M. 607 [3] [U/mg] | Antimicrobial potency B. Sub. (Bacillus subtilis PCI) [U/mg] | Antimicrobial potency [3] | Solubility [5] | further results
Cc1c(N)nc(C(CC(N)=O)NCC(N)C(N)=O)nc1C(=O)NC(C(=O)NC(C)C(O)C(C)C(=O)NC(C(=O)NCCc1nc(-c2nc(C(=O)NCCCNC(C)c3ccccc3)cs2)cs1)C(C)O)C(OC1OC(CO)C(O)C(O)C1OC1OC(CO)C(O)C(OC(N)=O)C1O)c1c[nH]cn1 [NK631, 3-[(S)-1'-phenylethylamino]propylaminobleomycin] | 0.82 (≈ 0.556 µM) |  |  |  |  |  |  |  |  |  |  |  |  |  |  |  |  |  |  |  | Cell growth inhibition compared with Bleomycin complex (HeLa S3 cell; HeLa S3, 72 hours): twice as strongly as Bleomycin complex
Cc1c(N)nc(C(CC(N)=O)NCC(N)C(N)=O)nc1C(=O)NC(C(=O)NC(C)C(O)C(C)C(=O)NC(C(=O)NCCc1nc(-c2nc(C(=O)NCCCNC(C)c3ccccc3)cs2)cs1)C(C)O)C(OC1OC(CO)C(O)C(O)C1OC1OC(CO)C(O)C(OC(N)=O)C1O)c1cnc[nH]1.O=S(=O)(O)O (mixture of isomers) [RS form, 3-[(R,S)-1'-phenylethylamino]propylaminobleomycin monosulfate (copper-free form), reference compound] | 0.80 | 0.49 | 0.63 | 13 | 51 | 51 | 60 | 78 | 0.31 | 121 | 149 | 196 | 257 | 298 | 1/12 | 47.8 | 7535 | 1400 |  |  | LD50 (rats [4]): 150.6 mg(w)/kg
Cc1c(N)nc([C@H](CC(N)=O)NC[C@H](N)C(N)=O)nc1C(=O)N[C@H](C(=O)N[C@H](C)[C@@H](O)[C@H](C)C(=O)N[C@H](C(=O)NCCc1nc(-c2nc(C(=O)NCCCN[C@@H](C)c3ccccc3)cs2)cs1)[C@@H](C)O)[C@@H](O[C@@H]1O[C@@H](CO)[C@@H](O)[C@H](O)[C@@H]1O[C@H]1O[C@H](CO)[C@@H](O)[C@H](OC(N)=O)[C@@H]1O)c1cnc[nH]1.Cl.Cl [NK631 dihydrochloride (copper-free form)] |  |  |  |  |  |  |  |  |  |  |  |  |  |  |  |  |  |  | 7,834 u/mg and 7,820 u/mg and 7,845 u/mg | Soluble in water, methanol, acetic acid, DMSO, DMF; also recorded: sparingly soluble in dioxane; also recorded: insoluble in ethanol | 
CC(=O)O.CC(=O)O.Cc1c(N)nc([C@H](CC(N)=O)NC[C@H](N)C(N)=O)nc1C(=O)N[C@H](C(=O)N[C@H](C)[C@@H](O)[C@H](C)C(=O)N[C@H](C(=O)NCCc1nc(-c2nc(C(=O)NCCCN[C@@H](C)c3ccccc3)cs2)cs1)[C@@H](C)O)[C@@H](O[C@@H]1O[C@@H](CO)[C@@H](O)[C@H](O)[C@@H]1O[C@H]1O[C@H](CO)[C@@H](O)[C@H](OC(N)=O)[C@@H]1O)c1cnc[nH]1 |  |  |  |  |  |  |  |  |  |  |  |  |  |  |  |  |  |  | 7,620 u/mg | Soluble in water, methanol, acetic acid, DMSO, DMF; also recorded: sparingly soluble in dioxane; also recorded: insoluble in ethanol | 
Cc1c(N)nc([C@H](CC(N)=O)NC[C@H](N)C(N)=O)nc1C(=O)N[C@H](C(=O)N[C@H](C)[C@@H](O)[C@H](C)C(=O)N[C@H](C(=O)NCCc1nc(-c2nc(C(=O)NCCCN[C@@H](C)c3ccccc3)cs2)cs1)[C@@H](C)O)[C@@H](O[C@@H]1O[C@@H](CO)[C@@H](O)[C@H](O)[C@@H]1O[C@H]1O[C@H](CO)[C@@H](O)[C@H](OC(N)=O)[C@@H]1O)c1cnc[nH]1.Cl.Cl.[Cu] [3-[(S)-1'-phenylethylamino]propylaminobleomycin dihydrochloride (copper-containing form)] |  |  |  |  |  |  |  |  |  |  |  |  |  |  |  |  |  |  |  | Soluble in water, methanol | 
Cc1c(N)nc([C@H](CC(N)=O)NC[C@H](N)C(N)=O)nc1C(=O)N[C@H](C(=O)N[C@H](C)[C@@H](O)[C@H](C)C(=O)N[C@H](C(=O)NCCc1nc(-c2nc(C(=O)NCCCN[C@@H](C)c3ccccc3)cs2)cs1)[C@@H](C)O)[C@@H](O[C@@H]1O[C@@H](CO)[C@@H](O)[C@H](O)[C@@H]1O[C@H]1O[C@H](CO)[C@@H](O)[C@H](OC(N)=O)[C@@H]1O)c1cnc[nH]1.O=S(=O)(O)O [NK631 monosulfate (copper-free form), 3-[(S)-1'-phenylethylamino]-propylaminobleomycin monosulfate (copper-free form)] |  | 0.25 | 0.36 | 19 | 24 | 39 | 68 | 84 | 0.35 | 116 | 163 | 216 | 269 | 296 | 1/12 | 47.8 | 7848 | 1550 | 7,865 u/mg | Soluble in water, methanol, acetic acid, DMSO, DMF; also recorded: sparingly soluble in dioxane; also recorded: insoluble in ethanol | Fibrosis grade reduced to, as compared with RS form (lung of mice; relative to RS form): about 1/2; Fibrosis incidence reduced to, as compared with RS form (lung of mice; relative to RS form): about 1/2; Fibrosis grade reduced to, as compared with bleomycin complex (lung of mice; relative to bleomycin complex): 1/4; Fibrosis incidence reduced to, as compared with bleomycin complex (lung of mice; relative to bleomycin complex): 1/3; Carcinostatic activity, times as high as that of the Bleomycin complex ([1]; relative to bleomycin complex): about 1.4 times; Subacute and chronic toxicity (rats [6]): comparable to Bleomycin complex; Subacute and chronic toxicity (dogs; dogs): comparable to Bleomycin complex; Toxicity to the lung (dogs; subacute and chronic toxicity study, species not stated separately): lower than that of the Bleomycin complex; LD50 (rats [4]): 155.0 mg(w)/kg

From patent US4195018A, “3-[(S)-1'-Phenylethylamino]propylaminobleomycin, non-toxic salt thereof, and method for producing same” (Nippon Kayaku Kabushiki Kaisha, priority 1977, dated 1980)
